Measured values reported in patent US6893659B2, “Pharmaceutical composition for oral administration of a N-piperidino-3- pyrazolecarboxamide derivative, its salts and their solvates” (Sanoti-Synthelabo, priority 1997, dated 2005).
In brackets after ≈: the same amount, converted by molar mass. Counter-ions that a name gives are not always drawn.

Assays:
[1] = Instantaneous solubility of the compounds of formula (I) in aqueous media; type: physicochemical; settings: for Solubility, dissolution medium Acetic buffer pH 7.5 / Solubility, dissolution medium Phosphate buffer pH 7.5 / Solubility, dissolution medium Water / Solubility, dissolution medium Water + 10% ethanol: instantaneous solubility, room temperature
Procedure: (§1) Furthermore, the hydrophobic character of the compounds of formula (I) is very strongly pronounced. […] These compounds are soluble in alcohols and glycols and more particularly in polyethylene glycols (PEG).
The solubilities of the compounds of formula (I) are measured in different aqueous media. The instantaneous solubility is evaluated at room temperature by quantitative analysis. The results, expressed in μg per ml, are collated in Table 1 below: […]

[2] = Solubility of compound A in solvents and after dilution of the solutions in water; type: physicochemical; settings: for solubility: organic solvent or mixture
Procedure: as §1
However, when the solutions obtained with an alcohol or a glycol are diluted in an aqueous medium, the compound of formula (I) precipitates because of its strongly hydrophobic character.
Measurements were also made of the solubility of compound A in different solvents (Table 2) and after dilution in water of the solutions formed (Table 3).

[3] = Wettability by H. Mohamad's method; type: physicochemical
Source text: as §1
The wettability of compound A was studied in different formulations using the method of H. Mohamad et al., Labo Pharma. Problèmes techniques, 1984, 32 (346), 284-289.

[4] = Kinetics of dissolution in a gastric medium; type: physicochemical; settings: 40 mg in one liter, phosphate-citrate buffer pH 3, 37° C., no surfactant
Procedure: The kinetics of dissolution of different formulations in a gastric medium were studied at 37° C. in a phosphate-citrate buffer of pH 3 for 30 minutes. […]
6 tests were carried out for each formulation and the amount of compound A dissolved in the medium was measured every 5 minutes.
Table 7 indicates the mean value of the percentage of compound A dissolved and the standard deviation relative to this value for the different formulations described in Table 6.

[5] = Intestinal transepithelial passage across Caco-2 monolayer; type: in vitro ADME; settings: human, Caco-2; introduced in Hank's medium pH 6.5, in solution in DMSO; apical to basal; read-out: Coefficient of permeability P
Procedure: (§2) The permeability of the epithelium of the compounds is evaluated using the Caco-2 cell line, which has the characteristic of undergoing differentiation in vitro to form an epithelial monolayer (Crit. Rev. Ther. Drug Carrier System, 1991, 8 (4), 105-330). In this model the permeability of compound A dissolved in dimethyl sulfoxide (DMSO) is high, showing that it has a good ability to be absorbed by the intestine when it is in solution.
(§3) Caco-2 cells are cultured onto microporous polycarbonate filters covered with collagen. The cellular monolayer formed on the filter then makes it possible to separate an apical compartment (imitating the intestinal lumen) from a basal compartment (imitating the blood circulation).
(§4) The composition containing the compound to be studied is placed on the apical side and the passage of this compound, dispersed or solubilized in Hank's medium, through this cellular barrier is evaluated by measuring the kinetics of its appearance on the basal side. This aqueous medium, of pH 6.5, has the following composition: NaCl=8.0 g/l; KCl=0.4 g/l; CaCl2=0.19 g/l; MgCl2=0.1 g/l; MgSO4=0.1 g/l; Na2HPO4=0.09 g/l; KH2PO4=0.06 g/l; NaHCO3=0.35 g/l; glucose=1 g/l; phenol red=0.01 g/l.
(§5) The coefficient of permeability P, in cm/s, is then determined; this characterizes the rate of passage of the molecule through the membrane, namely: P=(da/dt).(1/A.Co) • where: • da/dt=variation of the amount of test compound passing through the cellular monolayer as a function of time (mol/s) • A=surface area of the monolayer (cm^2) • Co=initial concentration of the test compound (mol/l)

[6] = system: Caco-2 cells; assay: as above; type: in vitro ADME
Procedure: as §2, §3, §4, §5

[7] = ethanol solution, dilution in water 10%
[8] = polyethylene glycol 400 solution, dilution in water 30%

Solubility, dissolution medium Acetic buffer pH 7.5 [1] [μg per ml] | Solubility, dissolution medium Phosphate buffer pH 7.5 [1] [μg per ml] | Solubility, dissolution medium Water ([1]; water) [μg per ml] | Solubility, dissolution medium Water + 10% ethanol [1] [μg per ml] | SMILES | also measured
30 | 0.9 | 13 | 38 | Cc1c(C(=O)NN2CCCCC2)nn(-c2ccc(Cl)cc2Cl)c1-c1ccc(Cl)cc1 [Hydrogensulfate] | 
1.2 |  | 0.7 | 0.9 | Cc1c(C(=O)NN2CCCCC2)nn(-c2ccc(Cl)cc2Cl)c1-c1ccc(Cl)cc1 [Solvated compound A] | 
 |  | 39 | 48 | Cc1c(C(=O)NN2CCCCC2)nn(-c2ccc(Cl)cc2Cl)c1-c1ccc(Cl)cc1 [Methanesulfonate (solvated)] | 
2.4 | 0.2 | 3.9 | 7.3 | Cc1c(C(=O)NN2CCCCC2)nn(-c2ccc(Cl)cc2Cl)c1-c1ccc(Cl)cc1 [Paratoluenesulfonate] | 
 |  |  |  | Cc1c(C(=O)NN2CCCCC2)nn(-c2ccc(Cl)cc2Cl)c1-c1ccc(Cl)cc1 [compound A, N-Piperidino-5-(4-chlorophenyl)-1-(2,4-dichlorophenyl)-4-methylpyrazole-3-carboxamide] | Solubility, dissolution medium Water + 10% ethanol ([1]; listed as Compound A (base)): 1.2 μg per ml; Solubility in water (in words) ([1]; water, irrespective of the pH): practically insoluble; Amount of compound A dissolved, measured [2, 7]: 1.2.10^−3 mg/ml; Amount of compound A dissolved, theoretical [2, 7]: 3.5 mg/mL; solubility ([2]; solvent Ethanol): 35 mg/mL (≈ 75.5 mM); solubility ([2]; solvent Polyethylene glycol 400): 50 mg/mL (≈ 108 mM); Amount of compound A dissolved, measured [2, 8]: 3 µg/mL; Amount of compound A dissolved, theoretical [2, 8]: 15 mg/mL; Dilution in water ([2]; solution in polyethylene glycol 1500 at 60° C.): not dilutable; Solubility of compound A ([2]; solvent Polyethylene glycol 1500 at 60° C.): 80 mg/g; Wettability in water (in words) [3]: not wettable; Dissolution in the dissolution medium with nothing else added [4]: no dissolution takes place; Papp A→B [5]: 9.6 ×10⁻⁶ cm/s; Relative rate of passage ([6]; Caco-2 monolayer, Hank's medium pH 6.5, relative to compound A in suspension in Hank's medium (=1)): 1; Permeability / ability to pass through the epithelium (in words) ([6]; compound dissolved in DMSO): very good ability and high
0.9 | 0.7 | 1.3 | 7.5 | Cc1c(C(=O)NN2CCCCC2)nn(-c2ccc(Cl)cc2Cl)c1-c1ccc(Cl)cc1 [Phosphate] | 
54 | 0.5 | 37 | 10 | Cc1c(C(=O)NN2CCCCC2)nn(-c2ccc(Cl)cc2Cl)c1-c1ccc(Cl)cc1 [Hydrochloride (solvated)] | 
